These results are taken from US9062032B2, “Aminoalkyl-substituted N-thienylbenzamide derivative” (ASTELLAS PHARMA INC., priority 2011, dated 2015).

Structures can show the parent of a compound that is named as a salt.

Experiment [1] concerns phosphate absorption from the intestinal tract. The experiment in a line: Action of inhibiting increase in blood radioactivity in rat orally loaded with 32P phosphate (phosphate absorption inhibitory action). The settings on record: male Wistar rats, 3 mg/kg oral, 32P phosphate load 5 min after dosing, serum radioactivity AUC0-30 min. It is filed as in vivo. The method, then: Action of Inhibiting Increase in Blood Radioactivity in Rat Orally Loaded with ^32P Phosphate (Phosphate Absorption Inhibitory Action)
Male Wistar rats (6- to 7-week old) were fasted for 24 hours and then used as experimental animals. The compound was suspended or dissolved with a solvent, and was used at a concentration of 0.6 mg/mL. The compound was forcibly orally administered at a dose of 3 mg/kg to the animals of a compound-administered group. Control-group animals were administered a solvent containing no compound at a dose of 5 mL/kg. After 5 minutes from administration of the compound or the solvent, a ^32P-containing phosphate solution (8.3 mM NaH2PO4) was orally administered thereto at a dose of 7.2 mL/kg. After 15 minutes and 30 minutes, the blood was taken from the orbital venous plexus and the serum was collected. Radioactivity in 0.1 mL of the serum was measured by a liquid scintillation counter. AUC0-30 min in calculated from the measured counts was considered as a phosphate absorption amount. The phosphate absorption inhibitory rate was determined from the AUC0-30 min value according to the following formula. Inhibition rate of phosphate absorption (%)=(1−phosphate absorption count of compound-administered group/phosphate absorption count of standard group)×100
Table 2 illustrates examples of the inhibition rate (Int. 2) of phosphate absorption in regard to some of the compounds of Formula (I).

The target in another experiment is T1, rat NPT-IIb (Rattus norvegicus, UniProt Q9JJ09).
T1 construct: rat NPT-IIb ORF was cloned into p3×FLAG-CMV-10 by PCR; expressed in transfected cells
T1 sequence (Q9JJ09 1-695): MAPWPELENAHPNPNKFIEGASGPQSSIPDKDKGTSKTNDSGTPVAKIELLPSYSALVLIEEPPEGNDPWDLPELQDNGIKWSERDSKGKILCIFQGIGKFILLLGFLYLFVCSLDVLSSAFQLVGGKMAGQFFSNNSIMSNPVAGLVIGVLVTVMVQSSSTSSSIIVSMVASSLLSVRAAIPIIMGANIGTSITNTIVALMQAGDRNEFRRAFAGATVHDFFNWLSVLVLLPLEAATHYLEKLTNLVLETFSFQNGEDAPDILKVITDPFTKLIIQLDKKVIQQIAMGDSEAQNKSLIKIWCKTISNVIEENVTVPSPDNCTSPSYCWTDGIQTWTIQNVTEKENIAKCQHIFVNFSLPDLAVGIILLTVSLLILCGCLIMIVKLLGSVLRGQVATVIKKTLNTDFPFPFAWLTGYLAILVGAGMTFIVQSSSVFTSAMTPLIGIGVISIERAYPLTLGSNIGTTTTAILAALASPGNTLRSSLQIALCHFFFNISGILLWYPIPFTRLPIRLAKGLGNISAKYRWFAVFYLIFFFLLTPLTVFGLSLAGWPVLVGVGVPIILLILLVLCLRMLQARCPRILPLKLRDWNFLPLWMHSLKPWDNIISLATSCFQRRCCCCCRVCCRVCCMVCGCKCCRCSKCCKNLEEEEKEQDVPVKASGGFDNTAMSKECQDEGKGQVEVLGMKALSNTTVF
The experiment in a line: Inhibitory action against 33P-phosphate uptake into rat NPT-IIb expression cell. The class given is cell-based. The settings on record: HEK293; compound concentration 1 μM; rat NPT-IIb stable expression 293 cells; read-out: Int. 1 (%): inhibition rate of the 33P-phosphate uptake into the rat NPT-IIb. An excerpt:
Inhibitory Action Against ^33P-Phosphate Uptake into Rat NPT-IIb Expression Cell
(1) Preparation of Rat NPT-IIb Expression Cell
A rat small intestine cDNA library was used as a template, and rat NPT-IIb ORF was cloned into p3×FLAG-CMV-10 by PCR according to the prescribed method. Thereafter, 293 cells were transfected with the cloned rat NPT-IIb expression plasmid, thereby obtaining a rat NPT-IIb stable expression cell line by using G418.
(2) Evaluation System for Inhibition of Phosphate Uptake into Rat NPT-IIb Expression Cell
The rat NPT-IIb expression cells were seeded to a 96-well plate, followed by incubation overnight. Thereafter, the culture medium was removed, the plate was washed with buffer A (137 mM N-methyl-D-glucamine, 5.4 mM KCl, 2.8 mM CaCl2, 1.2 mM MgCl2, and 10 mM HEPES (adjusted to pH 7.4 using HCl)), and then buffer B (137 mM NaCl, 5.4 mM KCl, 2.8 mM CaCl2, 1.2 mM MgCl2, 0.1 mM KH2PO4, and 10 mM HEPES (adjusted to pH 7.4 using KOH)) was added thereto. Subsequently, a compound with a concentration of 10 times the evaluation concentration was prepared by dilution with the buffer B and added thereto. After the resultant was incubated in a CO2 incubator, the buffer B supplemented 50 μCi/mL of ^33P was added thereto, and then the resultant was incubated again in a CO2 incubator. After the reaction, the buffer was removed, the plate was washed with buffer C (137 mM NaCl, 10 mM Tris/HCl, pH 7.2). Thereafter, MicroScint-20 was added thereto, and ^33P uptake was measured using TopCount. An inhibition rate was calculated by the following formula. Inhibition rate (%)=(1−(^33P uptake of well treated with chemical)/(^33P uptake of DMSO-added well))×100
Table 1 illustrates examples of the inhibition rate (Int. 1) of the ^33P-phosphate uptake into the rat NPT-IIb in some of the compounds of the present invention at a concentration of drug efficacy evaluation of 1 μM. Here, Ex represents the number of example compounds described later (the same shall apply hereinafter).

As to `CCC(CC)N(CCN(CCOC)C(=O)CCC(=O)O)Cc1cccc(C(=O)Nc2sc3c(c2C(=O)Nc2ccc(CCc4ccc(C(=O)O)cc4)cc2)CCCC3)c1.Cl` [Example 60], the “Int. 2 (%): inhibition rate of phosphate absorption” value (“Int. 2 (%): inhibition rate” below) in experiment [1] is listed as 56%. Besides, at rat NPT-IIb, the inhibition (in general, the share of the control response that was lost under treatment) at 1 µM came out at 86%.

Take `CCC(CC)N(CCN(C)C(=O)CCC(=O)O)Cc1cccc(C(=O)Nc2sc3c(c2C(=O)Nc2ccc(CCc4ccc(C(=O)O)cc4)nc2)CCCC3)c1` [Example 96]: the inhibition at 1 µM on rat NPT-IIb was found to be 70%.

Turning to `CCC(CC)N(CCCN(C)C(=O)CCC(=O)O)Cc1cccc(C(=O)Nc2sc3c(c2C(=O)Nc2ccc(CCc4ccc(C(=O)O)cc4)cc2)CCCC3)c1.Cl` [Example 66], in experiment [1], the “Int. 2 (%): inhibition rate” value was determined as 59%. On rat NPT-IIb, the inhibition at 1 µM worked out at 76%.

For `CCC(CC)N(CCN(C)C(=O)CCC(=O)O)Cc1cccc(C(=O)Nc2sc3c(c2C(=O)Nc2ccc(CCCc4ccc(C(=O)O)cc4)cc2)CCCC3)c1` [Example 53], the inhibition at 1 µM on rat NPT-IIb was determined as 85%.

For `CCC(CC)N(CCN(C)C(=O)CCC(=O)O)Cc1cc(C(=O)Nc2sc3c(c2C(=O)Nc2ccc(CCc4ccc(C(=O)O)cc4)cc2)CCCC3)ccn1` [Example 99], the inhibition at 1 µM on rat NPT-IIb came out at 71%.

Turning to `CCC(CC)N(CCN(C)C(=O)CCC(C)(C)C(=O)O)Cc1cccc(C(=O)Nc2sc3c(c2C(=O)Nc2ccc(CCc4ccc(C(=O)O)cc4)cc2)CCCC3)c1` [Example 67, 4-(2-{4-[({2-[(3-{[{2-[(4-carboxy-4-methylpentanoyl)(methyl)amino]ethyl}(pentan-3-yl)amino]methyl}benzoyl)amino]-4,5,6,7-tetrahydro-1-benzothiophen-3-yl}carbonyl)amino]phenyl}ethyl)benzoic acid hydrochloride], the inhibition at 1 µM at rat NPT-IIb turned out to be 89%.

With `CCC(CC)N(CCN(C)C(=O)CCC(=O)O)Cc1cccc(C(=O)Nc2sc3c(c2C(=O)Nc2ccc(CCc4ccc(C(=O)O)cc4)cc2)CCCCCC3)c1` [Example 43], at rat NPT-IIb, the inhibition at 1 µM was found to be 65%.

As for `CCC(CC)N(Cc1cccc(C(=O)Nc2sc3c(c2C(=O)Nc2ccc(CCc4ccc(C(=O)O)cc4)cc2)CCCC3)c1)C(=O)CC(C)(C)CC(=O)O` [Example 121, 4-(2-{4-[({2-[(3-{[(4-carboxy-3,3-dimethylbutanoyl)(pentan-3-yl)amino]methyl}benzoyl)amino]-4,5,6,7-tetrahydro-1-benzothiophen-3-yl}carbonyl)amino]phenyl}ethyl)benzoic acid], at rat NPT-IIb, the inhibition at 1 µM was 79%.

Consider `CCC(CC)N(CCN(C)C(=O)OCC(=O)O)Cc1cccc(C(=O)Nc2sc3c(c2C(=O)Nc2ccc(CCc4ccc(C(=O)O)cc4)cc2)CCCC3)c1.Cl` [Example 4, 4-(2-{4-[({2-[(3-{[(2-{[(carboxymethoxy)carbonyl](methyl)amino}ethyl)(pentan-3-yl)amino]methyl}benzoyl)amino]-4,5,6,7-tetrahydro-1-benzothiophen-3-yl}carbonyl)amino]phenyl}ethyl)benzoic acid hydrochloride], for which, in experiment [1], the “Int. 2 (%): inhibition rate” value is reported as 53%. Besides, the inhibition at 1 µM at rat NPT-IIb is 77%.

As for `CC(C)N(CCN(C)C(=O)CCC(=O)O)Cc1cccc(C(=O)Nc2sc3c(c2C(=O)Nc2ccc(CCc4ccc(C(=O)O)cc4)cc2)CCCC3)c1` [Example 38], the inhibition at 1 µM at rat NPT-IIb was 61%.

For the molecule `CCN(CCN(Cc1cccc(C(=O)Nc2sc3c(c2C(=O)Nc2ccc(CCc4ccc(C(=O)O)cc4)cc2)CCCC3)c1)C1CC1)C(=O)CCC(=O)O` [Example 31], the inhibition at 1 µM at rat NPT-IIb came to 87%.

For `CCC(CC)N(CCN(C)C(=O)CCC(=O)O)Cc1cccc(C(=O)Nc2sc3c(c2C(=O)Nc2ccc(CCc4ccc(C(=O)O)cc4)cc2)CCCC3)c1.Cl` [Example 2, 4-(2-{4-[({2-[(3-{[{2-[(3-carboxypropanoyl)(methyl)amino]ethyl}(pentan-3-yl)amino]methyl}benzoyl)amino]-4,5,6,7-tetrahydro-1-benzothiophen-3-yl}carbonyl)amino]phenyl}ethyl)benzoic acid hydrochloride], the “Int. 2 (%): inhibition rate” value in experiment [1] is over 60%. On rat NPT-IIb, the inhibition at 1 µM came to 87%.

On to `CC(C)[C@@H](C)N(CCN(C)C(=O)CCC(=O)O)Cc1cccc(C(=O)Nc2sc3c(c2C(=O)Nc2ccc(CCc4ccc(C(=O)O)cc4)cc2)CCCC3)c1` [Example 70], for which the inhibition at 1 µM on rat NPT-IIb is 60%.

Turning to `CCC(CC)N(CCN(C)C(=O)CCC(=O)O)Cc1cccc(C(=O)Nc2sc(C3CCCCC3)cc2C(=O)Nc2ccc(CCc3ccc(C(=O)O)cc3)cc2)c1` [Example 41], on rat NPT-IIb, the inhibition at 1 µM amounted to 73%.

As to `CC(C)N(Cc1cccc(C(=O)Nc2sc3c(c2C(=O)Nc2ccc(CCc4ccc(C(=O)O)cc4)cc2)CCCC3)c1)[C@H]1CC[C@H](C(=O)O)CC1` [Example 172], the inhibition at 1 µM on rat NPT-IIb worked out at 48%.

Regarding `CCC(CC)N(Cc1cccc(C(=O)Nc2sc3c(c2C(=O)Nc2ccc(CCc4ccc(C(=O)O)cc4)cc2)CCCC3)c1)C(=O)CCC(C)(C)C(=O)O` [Example 109, 4-(2-{4-[({2-[(3-{[(4-carboxy-4-methylpentanoyl)(pentan-3-yl)amino]methyl}benzoyl)amino]-4,5,6,7-tetrahydro-1-benzothiophen-3-yl}carbonyl)amino]phenyl}ethyl)benzoic acid], the inhibition at 1 µM on rat NPT-IIb was found to be 86%.

Regarding `CCC(CC)N(CCc1cccc(C(=O)Nc2sc3c(c2C(=O)Nc2ccc(CCc4ccc(C(=O)O)cc4)cc2)CCCC3)c1)CCN(C)C(=O)CCC(=O)O` [Example 79], the inhibition at 1 µM at rat NPT-IIb stood at 75%.

For the molecule `CN(CCN(Cc1cccc(C(=O)Nc2sc3c(c2C(=O)Nc2ccc(CCc4ccc(C(=O)O)cc4)cc2)CCCC3)c1)C1CC1)C(=O)CCC(=O)O` [Example 37], the inhibition at 1 µM on rat NPT-IIb is 77%.
